Assay results reported in PubChem BioAssay AID248 (DTP/NCI, 2004).
Where “and” joins values, the source holds several entries; their conditions need not be identical. Equal entries are not always repeated. Toxic doses and inconclusive results are not listed. Rule as the data show it: active = T/C of 150% or more; inactive = T/C below 125%.

Tested on: L1210 leukemia ip in BDF1 mice, survival T/C
Assay: NCI In Vivo Anticancer Drug Screen. Data for tumor model L1210 Leukemia (intraperitoneal) in B6D2F1 (BDF1) mice
Conditions: endpoint: mean survival time, higher = longer survival
In short: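 Transplantable tumor model; survival measured in treated vs vehicle control mice. Value = treated/control.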

[1] = dose: 25.0 mg/kg/injection, schedule: Q04DX003 (ip), vehicle: Klucel (hydroxypropylcellulose) (HPC)
[2] = dose: 50.0 mg/kg/injection, schedule: Q04DX003 (ip), vehicle: Klucel (hydroxypropylcellulose) (HPC)
[3] = dose: 100.0 mg/kg/injection, schedule: Q04DX003 (ip), vehicle: Klucel (hydroxypropylcellulose) (HPC)
[4] = dose: 100.0 mg/kg/injection, schedule: Q04DX003 (ip), vehicle: saline
[5] = dose: 200.0 mg/kg/injection, schedule: Q04DX003 (ip), vehicle: saline
[6] = dose: 400.0 mg/kg/injection, schedule: Q04DX003 (ip), vehicle: saline
[7] = dose: 100.0 mg/kg/injection, schedule: Q01DX001 (ip), vehicle: saline with Tween-80
[8] = dose: 200.0 mg/kg/injection, schedule: Q01DX001 (ip), vehicle: saline with Tween-80
[9] = dose: 400.0 mg/kg/injection, schedule: Q01DX001 (ip), vehicle: saline with Tween-80
[10] = dose: 100.0 mg/kg/injection, schedule: Q01DX001 (ip), vehicle: saline
[11] = dose: 200.0 mg/kg/injection, schedule: Q01DX001 (ip), vehicle: saline
[12] = dose: 100.0 mg/kg/injection, schedule: Q04DX002 (ip), vehicle: Klucel (hydroxypropylcellulose) (HPC)

Measured: T/C

CCCCCCCCOC(=O)CCCc1ccc(N(CCCl)CCCl)cc1
inactive: dose: 100.0 mg/kg/injection, schedule: Q04DX002 (ip), vehicle: saline 104 % of control | dose: 200.0 mg/kg/injection, schedule: Q04DX002 (ip), vehicle: saline 108 % of control | dose: 400.0 mg/kg/injection, schedule: Q04DX002 (ip), vehicle: saline 111 % of control

Nc1nc(CCl)cs1
inactive: [1] 103 % of control | [2] 95 % of control | [3] 98 % of control and 100 % of control

Clc1ccc(N/N=C(\Cc2ccccn2)c2ccccc2)cc1
inactive: dose: 100.0 mg/kg/injection, schedule: Q04DX003 (sc), vehicle: olive oil, sesame oil, peanut oil 101 % of control | dose: 200.0 mg/kg/injection, schedule: Q04DX003 (sc), vehicle: olive oil, sesame oil, peanut oil 110 % of control | dose: 400.0 mg/kg/injection, schedule: Q04DX003 (sc), vehicle: olive oil, sesame oil, peanut oil 103 % of control

O=C(CCl)Nc1ccccc1S(=O)(=O)F
inactive: dose: 18.75 mg/kg/injection, schedule: Q01DX009 (ip), vehicle: carboxymethylcellulose (CMC) 91 % of control | dose: 37.5 mg/kg/injection, schedule: Q01DX009 (ip), vehicle: carboxymethylcellulose (CMC) 92 % of control | dose: 75.0 mg/kg/injection, schedule: Q01DX001 (ip), vehicle: carboxymethylcellulose (CMC) 98 % of control | dose: 75.0 mg/kg/injection, schedule: Q04DX003 (ip), vehicle: carboxymethylcellulose (CMC) 94 % of control | dose: 150.0 mg/kg/injection, schedule: Q01DX001 (ip), vehicle: carboxymethylcellulose (CMC) 93 % of control | dose: 150.0 mg/kg/injection, schedule: Q04DX003 (ip), vehicle: carboxymethylcellulose (CMC) 88 % of control | dose: 300.0 mg/kg/injection, schedule: Q01DX001 (ip), vehicle: carboxymethylcellulose (CMC) 97 % of control

CCC(/C=N\NC(=O)CCCC(=O)N/N=C/C(CC)CC)CC
inactive: dose: 50.0 mg/kg/injection, schedule: Q01DX001 (ip), vehicle: carboxymethylcellulose (CMC) 90 % of control | dose: 100.0 mg/kg/injection, schedule: Q01DX001 (ip), vehicle: carboxymethylcellulose (CMC) 90 % of control | dose: 400.0 mg/kg/injection, schedule: Q01DX001 (ip), vehicle: carboxymethylcellulose (CMC) 90 % of control

N#CC(Nc1ncccn1)c1ccccc1 (centres undefined)
inactive: dose: 50.0 mg/kg/injection, schedule: Q01DX009 (ip), vehicle: saline with Tween-80 104 % of control | dose: 100.0 mg/kg/injection, schedule: Q01DX009 (ip), vehicle: saline with Tween-80 93 % of control | dose: 200.0 mg/kg/injection, schedule: Q01DX009 (ip), vehicle: saline with Tween-80 104 % of control

O=C(NCCBr)Nc1ccccc1
inactive: dose: 12.5 mg/kg/injection, schedule: Q01DX009 (ip), vehicle: Klucel (hydroxypropylcellulose) (HPC) 97 % of control | dose: 25.0 mg/kg/injection, schedule: Q01DX009 (ip), vehicle: Klucel (hydroxypropylcellulose) (HPC) 108 % of control | dose: 50.0 mg/kg/injection, schedule: Q01DX009 (ip), vehicle: Klucel (hydroxypropylcellulose) (HPC) 108 % of control | dose: 80.0 mg/kg/injection, schedule: Q01DX009 (ip), vehicle: Klucel (hydroxypropylcellulose) (HPC) 103 % of control | dose: 115.0 mg/kg/injection, schedule: Q01DX009 (ip), vehicle: Klucel (hydroxypropylcellulose) (HPC) 114 % of control | dose: 170.0 mg/kg/injection, schedule: Q01DX009 (ip), vehicle: Klucel (hydroxypropylcellulose) (HPC) 95 % of control

CCOC(=O)C1(C(=O)OCC)COC(C)(C)OC1
inactive: [4] 103 % of control | [5] 118 % of control | [6] 106 % of control

CCC(/C=C1\Oc2ccc(-c3ccccc3)cc2N1CC)=C\c1oc2ccc(-c3ccccc3)cc2[n+]1CC
inactive: dose: 0.1 mg/kg/injection, schedule: Q01DX009 (ip), vehicle: other 102 % of control | dose: 0.3 mg/kg/injection, schedule: Q01DX009 (ip), vehicle: other 110 % of control | dose: 0.6 mg/kg/injection, schedule: Q01DX009 (ip), vehicle: other 116 % of control | dose: 0.62 mg/kg/injection, schedule: Q01DX009 (ip), vehicle: saline 111 % of control | dose: 1.2 mg/kg/injection, schedule: Q01DX009 (ip), vehicle: other 116 % of control | dose: 1.25 mg/kg/injection, schedule: Q01DX009 (ip), vehicle: saline 108 % of control | dose: 2.5 mg/kg/injection, schedule: Q01DX009 (ip), vehicle: saline 114 % of control | dose: 2.6 mg/kg/injection, schedule: Q01DX009 (ip), vehicle: other 122 % of control | dose: 5.0 mg/kg/injection, schedule: Q01DX009 (ip), vehicle: saline 103 % of control | dose: 19.0 mg/kg/injection, schedule: Q01DX001 (ip), vehicle: other 109 % of control

Nc1nc(N)c(-c2ccc(Cl)cc2)c(CCc2cccc(NC(=O)c3cccc(S(=O)(=O)F)c3)c2)n1
inactive: [7] 93 % of control | [8] 95 % of control | [9] 97 % of control

COc1c(N)c(C)nc(Cl)c1C#N
inactive: [10] 97 % of control | [11] 103 % of control | dose: 400.0 mg/kg/injection, schedule: Q01DX001 (ip), vehicle: saline 109 % of control

C=C1C(=O)OC2/C=C(\C)CC/C=C(\C)CC(OC(C)=O)C12 (centres undefined)
inactive: dose: 50.0 mg/kg/injection, schedule: Q01DX001 (ip), vehicle: saline 96 % of control | [10] 96 % of control | [11] 107 % of control

Nc1nc(N)nc(-c2cccc(Cl)c2)n1
inactive: [1] 107 % of control | [2] 101 % of control | [12] 111 % of control | [3] 102 % of control

CC1(C)CC(=O)C2C(C1)Nc1ccccc1NC2c1cccc([N+](=O)[O-])c1 (centres undefined)
inactive: [12] 109 % of control | dose: 200.0 mg/kg/injection, schedule: Q04DX002 (ip), vehicle: Klucel (hydroxypropylcellulose) (HPC) 103 % of control

Cc1nc(-c2ccccc2)oc1-c1ccccc1
inactive: [4] 92 % of control | [5] 95 % of control | [6] 92 % of control

CC(=O)OCC1OC(Sc2ccc([N+](=O)[O-])cc2[N+](=O)[O-])C(OC(C)=O)C(OC(C)=O)C1OC(C)=O (centres undefined)
inactive: [7] 96 % of control | [8] 101 % of control | [9] 93 % of control

O=S1(=O)CCCCC1C(O)(c1ccccc1)c1ccccc1 (centres undefined)
inactive: dose: 12.5 mg/kg/injection, schedule: Q04DX002 (ip), vehicle: saline with Tween-80 97 % of control | dose: 25.0 mg/kg/injection, schedule: Q04DX002 (ip), vehicle: saline with Tween-80 102 % of control | dose: 50.0 mg/kg/injection, schedule: Q04DX002 (ip), vehicle: saline with Tween-80 94 % of control

Nc1ccc(OCc2nc(N)nc(N)c2-c2ccc(Cl)cc2)cc1
inactive: dose: 100.0 mg/kg/injection, schedule: Q01DX001 (ip), vehicle: Klucel (hydroxypropylcellulose) (HPC) 102 % of control | dose: 200.0 mg/kg/injection, schedule: Q01DX001 (ip), vehicle: Klucel (hydroxypropylcellulose) (HPC) 105 % of control | dose: 400.0 mg/kg/injection, schedule: Q01DX001 (ip), vehicle: Klucel (hydroxypropylcellulose) (HPC) 96 % of control

Nc1ncnc2c(C(=O)O)c[nH]c12
inactive: dose: 100.0 mg/kg/injection, schedule: Q01DX001 (ip), vehicle: other 98 % of control | dose: 200.0 mg/kg/injection, schedule: Q01DX001 (ip), vehicle: other 110 % of control | dose: 400.0 mg/kg/injection, schedule: Q01DX001 (ip), vehicle: other 111 % of control

CCCCCCCC(=O)CCC
inactive: dose: 100.0 mg/kg/injection, schedule: Q01DX009 (ip), vehicle: Klucel (hydroxypropylcellulose) (HPC) 108 % of control | [3] 98 % of control | dose: 200.0 mg/kg/injection, schedule: Q01DX009 (ip), vehicle: Klucel (hydroxypropylcellulose) (HPC) 104 % of control | dose: 200.0 mg/kg/injection, schedule: Q04DX003 (ip), vehicle: Klucel (hydroxypropylcellulose) (HPC) 89 % of control | dose: 400.0 mg/kg/injection, schedule: Q01DX009 (ip), vehicle: Klucel (hydroxypropylcellulose) (HPC) 102 % of control | dose: 400.0 mg/kg/injection, schedule: Q04DX003 (ip), vehicle: Klucel (hydroxypropylcellulose) (HPC) 89 % of control

CC12CCC3C(CCC4=CC(=O)CCC43C)C1CCCN2 (centres undefined)
inactive: dose: 75.0 mg/kg/injection, schedule: Q01DX001 (sc), vehicle: steriod suspending solution 93 % of control | dose: 150.0 mg/kg/injection, schedule: Q01DX001 (sc), vehicle: steriod suspending solution 90 % of control
